Results: patent US20250230171A1 (MOMA Therapeutics, Inc., priority 2023, published 2025)
Where two headings read alike, the source gives them in different places.

What was measured:
DLD1 BRCA2 (−/−) cells = assay: 7-day cell viability assay (CellTiter-Glo), DLD1 BRCA2 (−/−); assay type: cell-based, human; settings: 7-day CellTiter-Glo, n=2, read-out: Viability IC50 (uM) DLD1 BRCA2 null
Method: (§1) Cell lines DLD1 WT and DLD1 BRCA2 (−/−) (Horizon Discovery Cat No. HD PAR-008 and HD-105-007) were plated in 384-well culture plates at seeding densities of 100cells/50 ul/well and 200 cells/50 uL/well respectively. The seeding densities are pre-determined from the growth curve kinetics performed to ensure log linear phase of cell growth for these 2 cell lines. These assay plates are then placed in the incubator at 37° C., 5% CO2, relative humidity >90% for a few hours before addition of test compounds. Compounds are dispensed using the Tecan HPD300 or Echo based on the plate map in the appropriate wells of the 384-well plates. The cells are treated with nine-point dose response with 3-fold serial dilutions of test compounds starting at 10 uM top concentration. After addition of the test compounds, the plates are incubated at 37° C., 5% CO2, relative humidity >90% for 7 days. CellTiter-Glo (Promega Cat. No. G7573), ATP detection reagent is prepared according to manufacturer's specifications. Cell assay plates are removed from incubator and bring to room temperature (RT) by letting them sit at bench top for at least 15 min. Using the MultiDrop liquid handler or a multichannel pipette, 35 μL/well of CTG is added and the plates are then placed shakes for 5 seconds, RT.

DLD1 WT cells = assay: 7-day cell viability assay (CellTiter-Glo), DLD1 parental (WT); assay type: cell-based, human; settings: 7-day CellTiter-Glo, n=2
Method: as §1

Row | Molecule | IC50 (DLD1 BRCA2 (−/−) cells; Homo sapiens, DLD-1, 168 h) [µM] | IC50 (DLD1 WT cells; Homo sapiens, DLD-1, 168 h) [µM] | IC50 (DLD1 BRCA2 (−/−) cells) [µM] | IC50 (DLD1 WT cells) [µM]
1 | COc1cnc(Cl)cc1-c1cc(C)ncc1C(=O)Nc1nc2c(s1)CN(C(=O)c1ccc(OC(F)(F)F)nc1OC)C2 [Example 1039, 2′-chloro-5′-methoxy-N-(5-(2-methoxy-6-(trifluoromethoxy)nicotinoyl)-5,6-dihydro-4H-pyrrolo[3,4-d]thiazol-2-yl)-6-methyl-[4,4′-bipyridine]-3-carboxamide] | 0.001 to 0.1 | ≥ 10 | – | –
2 | 2′-chloro-N-(5-(2-(difluoromethyl)pyrimidine-4-carbonyl)-5,6-dihydro-4H-pyrrolo[3,4-d]thiazol-2-yl)-5′-methoxy-6-methyl-[4,4′-bipyridine]-3-carboxamide [Example 641] | – | – | 0.001 to 0.1 | ≥ 10
3 | CCOc1nc(C(F)(F)F)ccc1C(=O)N1Cc2nc(NC(=O)c3cnc(C)cc3-c3cc(Cl)ncc3OC)sc2C1 [Example 969, 2′-chloro-N-(5-(2-ethoxy-6-(trifluoromethyl)nicotinoyl)-5,6-dihydro-4H-pyrrolo[3,4-d]thiazol-2-yl)-5′-methoxy-6-methyl-[4,4′-bipyridine]-3-carboxamide] | 0.001 to 0.1 | ≥ 10 | – | –
4 | 2′-chloro-N-(5-(4-cyano-1-methyl-1H-pyrazole-5-carbonyl)-5,6-dihydro-4H-pyrrolo[3,4-d]thiazol-2-yl)-5′-methoxy-6-methyl-[4,4′-bipyridine]-3-carboxamide [Example 581] | – | – | 0.001 to 0.1 | ≥ 10
5 | COc1cnc(Cl)cc1-c1cc(C)ncc1C(=O)Nc1nc2c(s1)CN(C(=O)c1cnc(C(F)(F)F)c(OC)n1)C2 [Example 986, 2′-chloro-5′-methoxy-N-(5-(6-methoxy-5-(trifluoromethyl)pyrazine-2-carbonyl)-5,6-dihydro-4H-pyrrolo[3,4-d]thiazol-2-yl)-6-methyl-[4,4′-bipyridine]-3-carboxamide] | 0.001 to 0.1 | ≥ 10 | – | –
6 | COc1cnc(Cl)cc1-c1cc(C)ncc1C(=O)Nc1nc2c(s1)CN(C(=O)c1ncc(OC(F)(F)F)cc1C)C2 [Example 1007, 2′-chloro-5′-methoxy-6-methyl-N-(5-(3-methyl-5-(trifluoromethoxy)picolinoyl)-5,6-dihydro-4H-pyrrolo[3,4-d]thiazol-2-yl)-[4,4′-bipyridine]-3-carboxamide] | 0.001 to 0.1 | ≥ 10 | – | –
7 | COc1cnc(C(F)F)cc1-c1cc(C)ncc1C(=O)Nc1nc2c(s1)CN(C(=O)c1cccc(C(F)F)n1)C2 | 0.001 to 0.1 | ≥ 10 | – | –
8 | COc1cnc(Cl)cc1-c1cc(C)ncc1C(=O)Nc1nc2c(s1)CN(C(=O)c1nc(OC)c(C(F)(F)F)cc1C)C2 [Example 987, 2′-chloro-5′-methoxy-N-(5-(6-methoxy-3-methyl-5-(trifluoromethyl)picolinoyl)-5,6-dihydro-4H-pyrrolo[3,4-d]thiazol-2-yl)-6-methyl-[4,4′-bipyridine]-3-carboxamide] | 0.001 to 0.1 | ≥ 10 | – | –
9 | COc1cnc(Cl)cc1-c1cc(C)ncc1C(=O)Nc1nc2c(s1)CN(C(=O)c1nc(C)c(Cl)nc1C)C2 [Example 622] | 0.001 to 0.1 | ≥ 10 | – | –
10 | 2′-Chloro-N-(5-(3,5-dimethoxypyrazine-2-carbonyl)-5,6-dihydro-4H-pyrrolo[3,4-d]thiazol-2-yl)-5′-methoxy-6-methyl-[4,4′-bipyridine]-3-carboxamide [Example 413] | – | – | 0.001 to 0.1 | ≥ 10
11 | COc1cnc(Cl)cc1-c1cc(C)ncc1C(=O)Nc1nc2c(s1)CN(C(=O)c1cc(C)cc(Cl)n1)C2 [Example 392, 2′-chloro-N-(5-(6-chloro-4-methylpicolinoyl)-5,6-dihydro-4H-pyrrolo[3,4-d]thiazol-2-yl)-5′-methoxy-6-methyl-[4,4′-bipyridine]-3-carboxamide] | 0.1 to 0.25 | ≥ 10 | – | –
12 | COc1cnc(Cl)cc1-c1cc(C)ncc1C(=O)Nc1nc2c(s1)CN(C(=O)c1nc(Cl)c(C(F)F)cc1C)C2 [Example 940, 2′-chloro-N-(5-(6-chloro-5-(difluoromethyl)-3-methylpicolinoyl)-5,6-dihydro-4H-pyrrolo[3,4-d]thiazol-2-yl)-5′-methoxy-6-methyl-[4,4′-bipyridine]-3-carboxamide] | 0.001 to 0.1 | ≥ 10 | – | –
13 | COc1cnc(Cl)cc1-c1cc(C)ncc1C(=O)Nc1nc2c(s1)CN(C(=O)c1ccc(OC(F)F)cc1)C2 | 0.001 to 0.1 | ≥ 10 | – | –
14 | COc1cnc(C(F)F)cc1-c1cc(C)ncc1C(=O)Nc1nc2c(s1)CN(C(=O)c1ccc(C(F)(F)F)nc1OC)C2 [Example 1016, 2′-(difluoromethyl)-5′-methoxy-N-(5-(2-methoxy-6-(trifluoromethyl)nicotinoyl)-5,6-dihydro-4H-pyrrolo[3,4-d]thiazol-2-yl)-6-methyl-[4,4′-bipyridine]-3-carboxamide] | 0.001 to 0.1 | ≥ 10 | – | –
15 | COc1cnc(Cl)cc1-c1cc(C)ncc1C(=O)Nc1nc2c(s1)CN(C(=O)c1cnc(OC(F)F)cc1Cl)C2 | 0.001 to 0.1 | ≥ 10 | – | –

Further lines, with some results ahead:

Row | IC50 (DLD1 BRCA2 (−/−) cells; Homo sapiens, DLD-1, 168 h) [µM] | Molecule | IC50 (DLD1 WT cells; Homo sapiens, DLD-1, 168 h) [µM] | IC50 (DLD1 BRCA2 (−/−) cells) [µM] | IC50 (DLD1 WT cells) [µM]
16 | 0.001 to 0.1 | COc1cnc(Cl)cc1-c1cc(C)ncc1C(=O)Nc1nc2c(s1)CN(C(=O)c1nccc(Cl)c1C(F)F)C2 [Example 926, 2′-chloro-N-(5-(4-chloro-3-(difluoromethyl)picolinoyl)-5,6-dihydro-4H-pyrrolo[3,4-d]thiazol-2-yl)-5′-methoxy-6-methyl-[4,4′-bipyridine]-3-carboxamide] | ≥ 10 | – | –
17 | 0.001 to 0.1 | COc1cnc(Cl)cc1-c1cc(C)ncc1C(=O)Nc1nc2c(s1)CN(C(=O)c1nc(C)c(C(F)F)nc1C)C2 | ≥ 10 | – | –
18 | 0.001 to 0.1 | COc1cnc(Cl)cc1-c1cc(C)ncc1C(=O)Nc1nc2c(s1)CN(C(=O)c1ccc(C(F)F)c(OC)n1)C2 | 5 to 10 | – | –
19 | 0.001 to 0.1 | COc1cnc(Cl)cc1-c1cc(C)ncc1C(=O)Nc1nc2c(s1)CN(C(=O)c1ncc(C(F)F)cc1C)C2 | ≥ 10 | – | –
20 | 0.001 to 0.1 | COc1cnc(Cl)cc1-c1cc(C)ncc1C(=O)Nc1nc2c(s1)CN(C(=O)c1ccc(C(F)F)c(C)n1)C2 | ≥ 10 | – | –
21 | 0.001 to 0.1 | COc1cnc(Cl)cc1-c1cc(C)ncc1C(=O)Nc1nc2c(s1)CN(C(=O)c1ccc(C#N)c(C(F)F)n1)C2 [Example 1015, 2′-chloro-N-(5-(5-cyano-6-(difluoromethyl)picolinoyl)-5,6-dibydro-4H-pyrrolo[3,4-d]thiazol-2-yl)-5′-methoxy-6-methyl-[4,4′-bipyridine]-3-carboxamide] | ≥ 10 | – | –
22 | 0.001 to 0.1 | COc1cnc(Cl)cc1-c1cc(C)ncc1C(=O)Nc1nc2c(s1)CN(C(=O)c1ccc(C#N)cn1)C2 [Example 578] | 5 to 10 | – | –
23 | 0.001 to 0.1 | COc1cnc(Cl)cc1-c1cc(C)ncc1C(=O)Nc1nc2c(s1)CN(C(=O)c1ccc(OC(F)F)c(C)n1)C2 [Example 1008, 2′-chloro-N-(5-(5-(difluoromethoxy)-6-methylpicolinoyl)-5,6-dihydro-4H-pyrrolo[3,4-d]thiazol-2-yl)-5′-methoxy-6-methyl-[4,4′-bipyridine]-3-carboxamide] | ≥ 10 | – | –
24 | 0.001 to 0.1 | COc1cnc(Cl)cc1-c1cc(C)ncc1C(=O)Nc1nc2c(s1)CN(C(=O)c1nccc(C(F)F)c1OC)C2 [Example 966, 2′-chloro-N-(5-(4-(difluoromethyl)-3-methoxypicolinoyl)-5,6-dihydro-4H-pyrrolo[3,4-d]thiazol-2-yl)-5′-methoxy-6-methyl-[4,4′-bipyridine]-3-carboxamide] | ≥ 10 | – | –
25 | 0.001 to 0.1 | COc1cnc(Cl)cc1-c1cc(C)ncc1C(=O)Nc1nc2c(s1)CN(C(=O)c1nc(C(F)F)ccc1C)C2 | ≥ 10 | – | –
